Measured values from patent publication EP0719267B1, “SECOND MESSENGER CELL SIGNALING INHIBITORS” (CELL THERAPEUTICS, INC., priority 1993, dated 1994).

Columns and labels:
[1] = system: Balb/3T3 cells; test: PDGF-induced proliferation of Balb/3T3 cells; format: cell-based, murine
Protocol: Balb/3T3 cells respond vigorously to PDGF stimulation, and are useful in vitro models for further study of PDGF-induced proliferation. Disregulated PDGF-proliferative response has been linked to a variety of diseases, including, e.g., restenosis, atherosclerosis, fibrosis, and tumor cell angiogenesis. Cells were plated in low serum-containing medium for 24 hours prior to stimulation with various concentrations of inventive compound no. 45. PDGF-BB was added at constant 10 µM concentrations. Tritiated thymidine was added and cells harvested for scintillation counting 24 hours later. Figure 15 illustrates a dose response curve from this assay, including an IC50 value of approximately 0.08 µM, exemplifying inhibitory activity of the tested compound.
In another investigation similar to the Balb/3T3 proliferation assay of Example 32, IC50 and ID50 values for inventive compounds nos. 70, 45, 59 and 58 were determined. LD50 values were determined using a cytotoxicity assay, as in Example 32. In these assays, Balb/3T3 cells, stimulated with PDGF and treated with one of the above inventive compounds in a manner identical to the tritiated thymidine procedure above, were incubated instead with a viable dye BCECF, a fluorescent dye. Fluorescence was measured using a fluorescent plate reader. […] Figure 17 illustrates assay results by comparing […] value against LD50 values for the inventive compounds tested. Most compounds tested were non-cytotoxic yet were significant inhibitors of proliferation.
Inventive compounds nos. 77,7 and 78 were added at various concentrations one hour prior to PDGF stimulation. PDGF-BB was added at a constant 10 µM concentrations along with tritiated thymidine. The cells were allowed to incubate for one day, following addition of PDGF and tritiated thymidine. 24 Hours later, the cells were harvested and counted by liquid scintillation counting. Results for compounds nos.77, 7 and 78 are shown in figures 26A, 26B and 26C, respectively. Background counts were approximately 1% of control levels.
Results obtained for compound no. 50 in the PDGF-induced proliferation of Balb/3T3 cells (Example 32), reported in figure 28, illustrate the inhibitive properties of this compound on proliferation induced by PDGF, representing significant inhibition at concentrations as low as 2 µM. […] 50, are capable of reducing tumor cell growth by blocking oncogene-induced events.
Figure 66 reports that inventive compound no. 45 inhibited PDGF-induced murine BALB/3T3 proliferation. Procedurally, cells were rested overnight in 0.2% serum and stimulated with 25 ng/ml PDGF. Compound no. 45 was added 1 hour prior to stimulation. Cells were pulsed with ^3H-TdR 24 hours later and harvested for scintillation counting 4 hours later.
Figures 66A and 66B are a dose response and cytoxicity curves, respectively, for inhibition of proliferation in Balb/3T3 cells by inventive compound no. 58. In the assay protocol, cells were starved overnight in 0.5% serum containing medium, followed by stimulation with 20 ng/ml PDGF for 24 hours. The cells were labeled with ^3H-TdR for 4 hours and harvested and counted by scintillation. Figure 66B illustrates that inventive compound no.
Figure 68 illustrates an effect of the delayed addition of inventive compound no. 58 to Balb/3T3 proliferation in response to PDGF-BB. Cells were stimulated with PDGF (20 ng/ml) and inventive compound no. 58 added either simultaneous with PDGF (0) or at various times after addition of PDGF, up to 6 hours later. At 24 hours, the cells were pulsed with ^3H-TdR and counted by scintillation four hours later. […] 58 was added as late as 20 hours after PDGF.
Figure 69 illustrates that inventive compound no. […] In the assay protocol, cells were serum starved for 24 hours before adding either 20 ng/ml PDGF or 10% serum. The cells were pulsed with ^3HTdR 24 hours later. Inventive compound no.

[2] = system: vascular cell adhesion molecule (VCAM); test: VCAM expression on TNF-stimulated HUVEC (flow cytometry); format: cell-based, human
Description: This example illustrates an investigation of inhibition of vascular cell adhesion molecule (VCAM) expression on HUVEC by compound no. 58. VCAM expression by endothelial cells is an early event in the pathogenesis of atherogenesis and multiple sclerosis, among other various autoimmune diseases. Figure 23 is a series of frequency histograms obtained in this exemplary assay. […] In the absence of TNF, VCAM expression on HUVEC was at a very low level. […] The average increase in cell fluorescence was approximately 10-fold. The bottom panel is a frequency histogram of TNF-stimulated cells in the presence of compound no 58. […] 58.
(§1) Assay results reported in figures 63A and 63B, illustrate that inventive compound no. […] HUVEC were stimulated with TNFα (20 ng/ml) for 5 hours and stained using fluorescent antibodies to ICAM-1 or VCAM-1. Cell surface expression was analyzed by flow cytometry. All values were normalized to the peak mean fluorescence of the positive control (=100%). Average levels of induction using TNFα- stimulation were 20-fold higher for ICAM-1 and over 50-fold higher for VCAM-1 from that of nonstimulated controls, as shown in figures 63 and 63B.
(§2) Figures 73A and 73B illustrate inhibition by inventive compound no. 58 of VCAM or ICAM expression, respectively, in HUVEC activated by TNF. Cells were stimulated for 8 hours in the presence or absence of inventive compounds and stained with fluorescent antibodies to VCAM or ICAM and analyzed by flow cytometry.

[3] = system: ICAM-1; test: ICAM expression on TNF-stimulated HUVEC (flow cytometry); format: cell-based, human
Protocol: as §1, §2

[4] = system: THP-1 cell adhesion to IL-1-activated HUVEC; test: THP-1 cell adhesion to activated HUVEC; format: cell-based, human
Protocol: This example illustrates inhibitive activity of compounds nos. 50 and 57 on THP-1 cell adhesion to IL-1-activated HUVEC. In an investigative assay, HUVEC were stimulated with IL-1 (10 ng/ml), both in the absence and presence of varying concentrations of drugs for 8 hours in a 96-well microtiter plate. In the wellplate, human monocytic leukemia cell line THP-1 cells were added at 50,000 cells per well. The THP-1 cells were pre-incubated with BCECF, a fluorescence dye that can be used to measure cell number using a fluorescence plate reader. After 10 minutes at 37 °C, the microtiter plate was inverted and spun at 900 rpm. The remaining adhering THP-1 cells were then analyzed.
Inventive compound no. […] HUVEC were stimulated with 20 ng/ml IL-1β or 15 ng/ml TNFα for 6 hours. Fluorescence labeled (BCECF-AM) THP-1 cells were allowed to adhere to the HUVEC for 20 minutes, washed once and the amount of fluorescence remaining analyzed on a fluorescence plate reader. The results, reported in figures 62A and 62B (TNFα or IL-1β, respectively), show inhibition of THP-1 adhesion to HUVEC.
Figures 72A and 72B illustrate that inventive compound no. 58 inhibited THP-1 cell adhesion to either TNF or IL-1-stimulated HUVEC, respectively. Procedurally, HUVEC were stimulated with TNF or IL-1 for 8 hours and THP-1 cells added for 20 minutes. The HUVEC were then washed and analyzed for adherence. Inventive compound no. 58 inhibited adhesion of THP-1 cells to HUVEC with an IC50 of approximately 1 µM for both TNF and IL-1.

SMILES: CCCCCCCCNCC(O)CCCCCCCCCn1c(=O)c2c(ncn2C)n(C)c1=O (centres unmarked) [compound no. 45]
- IC50 ([1]; Mus musculus, BALB/3T3, PDGF-BB, low serum 24 hours): ~80 nM
- VCAM-1 cell surface expression ([2]; TNFα (20 ng/ml), 5 hours): inhibited adhesion receptor expression on HUVEC
- ICAM-1 cell surface expression ([3]; TNFα (20 ng/ml), 5 hours): inhibited adhesion receptor expression on HUVEC
- inhibition of THP-1 adhesion ([4]; 20 ng/ml IL-1β or 15 ng/ml TNFα, 6 hours): inhibited adhesion of monocytic leukemia cells (THP-1) to IL-1β or TNFα-activated HUVEC

SMILES: CCCCCCCCCCCCNCC(O)CCCCCCCCCn1c(=O)c2c(ncn2C)n(C)c1=O (centres unmarked) [compound no. 50, 1-(11-Dodecylamino-10-hydroxyundecyl)-3,7-dmethylxanthine]
- minimal effective concentration ([1]; Mus musculus, BALB/3T3, fig. 28, read-out: concentrations giving significant inhibition): ≥ 2 µM
- inhibition of THP-1 adhesion ([4]; IL-1 (10 ng/ml), 8 hours): significantly inhibited THP-1 adhesion, even at low concentratations

SMILES: COc1cc(CNCC(O)CCCCCCCCCn2c(=O)c3c(ncn3C)n(C)c2=O)cc(OC)c1OC (centres unmarked) [compound no. 58, 1-[11-(3,4,5-Trimethoxybenzylamino)-10-hydroxyundecyl]-3,7-dimethylxanthine]
- PDGF-induced versus serum-induced proliferation ([1]; 20 ng/ml PDGF or 10% serum): inhibited PDGF- induced proliferation in Balb/3T3 cells to a greater extent than serum-induced proliferation
- effect on serum-induced proliferation ([1]; 10% serum): did not have a significant effect on serum-induced Balb/3T3 proliferation
- IC50 ([1]; Mus musculus, BALB/3T3, 20 ng/ml PDGF, 24 hours): 200 to 500 nM
- inhibition with delayed addition ([1]; added as late as 20 hours after PDGF): nearly complete inhibition in proliferation
- factor of reduction of mean fluorescence (VCAM expression) ([2]; TNF 6 hours, versus TNF-stimulated cells without compound): 8
- VCAM expression ([2]; TNF, 8 hours): inhibition
- ICAM expression ([3]; TNF, 8 hours): inhibition
- IC50 ([4]; Homo sapiens, TNF-stimulated HUVEC, 8 hours): ~1000 nM
